{"source": "ChEMBL document CHEMBL1156479", "about": "“Reversine increases the plasticity of lineage-committed mammalian cells” (Proc Natl Acad Sci U S A, 2007)", "key": {"[1]": {"biological_target": "Dual specificity mitogen-activated protein kinase kinase 1 (Mus musculus, UniProt P31938)", "sequence (P31938 whole entry)": "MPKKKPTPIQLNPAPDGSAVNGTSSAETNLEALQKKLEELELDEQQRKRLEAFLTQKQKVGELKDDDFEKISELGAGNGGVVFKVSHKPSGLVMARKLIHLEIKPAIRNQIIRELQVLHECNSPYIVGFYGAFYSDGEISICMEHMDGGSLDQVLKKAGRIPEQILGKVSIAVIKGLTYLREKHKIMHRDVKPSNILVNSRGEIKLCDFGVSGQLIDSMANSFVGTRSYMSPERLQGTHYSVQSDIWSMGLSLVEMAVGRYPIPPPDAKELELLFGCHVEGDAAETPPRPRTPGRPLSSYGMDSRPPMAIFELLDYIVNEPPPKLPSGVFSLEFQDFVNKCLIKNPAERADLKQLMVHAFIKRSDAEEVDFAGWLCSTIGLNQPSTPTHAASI", "experiment": "Inhibition of MEK1 in mouse C2C12 by ERK2 phosphorylation assay"}, "[2]": {"experiment": "Inhibition of ATPase activity of myosin 2 in mouse C2C12 myoblast assessed as release of inorganic phosphates"}, "C2C12": {"test_system": "C2C12", "experiment": "Inhibition of myotube formation in mouse C2C12 myoblasts at 20 nM", "conditions": "C2C12, read-out: INH"}}}
{"smiles": "c1nc2c(NC3CCCCC3)nc(Nc3ccc(N4CCOCC4)cc3)nc2[nH]1", "note": "[REVERSINE]", "values": [{"measurement": "IC50", "setting": "[1]", "value": 8, "unit": "nM"}, {"measurement": "IC50", "setting": "[2]", "value": 10, "unit": "nM"}, {"measurement": "inhibition at 0.02 µM", "setting": "C2C12", "value": "> 60", "unit": "%"}]}
